According to patent publication EP4748864A1, “POLYMERIZATION INITIATOR OR PHOTOSENSITIZER, POLYMERIZATION INITIATION COMPOSITION, AND METHOD FOR PRODUCING RESIN” (Miyoshi Oil & Fat Co., Ltd., priority 2023, dated 2025):

How the values were obtained:
Format in all cases: physicochemical
[1] = UV absorption characteristics of component (A), UV-visible spectrophotometer; settings: 100 µM chloroform solution, 10-mm quartz cell; for Maximum absorption wavelength Molar absorption coefficient: at the maximum absorption wavelength
Method: A 100 µM chloroform solution of each benzophenone derivative was prepared and placed in a 10-mm quartz cell. The absorption spectrum was measured using a UV-visible spectrophotometer (V-550, manufactured by JASCO Corporation).

[2] = Heat resistance of component (A): 5% weight loss temperature by TG/DTA; settings: heating rate 10°C/min, 25°C to 550°C
Method: The 5% weight loss temperature of each benzophenone derivative was measured as follows. Using a simultaneous differential thermal and thermogravimetric analyzer (TG/DTA6200, manufactured by SII), heating was performed at a heating rate of 10°C/min in a measurement range of 25°C to 550°C, and the temperature at which the weight change (TG) decreased by 5% by weight was read.

[3] = Solubility of component (A) in monomers and solvents, visual observation; design: key to Solubility Butyl acrylate / Solubility Toluene: ⊚: dissolved transparently; ∘: dissolved almost transparently, but turbidity was observed; △: not dissolved; settings: for Solubility Butyl acrylate: 0.1 g in butyl acrylate (1.0 g); for Solubility Butyl acrylate / Solubility Toluene: visual; for Solubility Toluene: 0.1 g in toluene (1.0 g); for solubility in butyl acrylate and toluene, result in words: 0.1 g in butyl acrylate (1.0 g) or toluene (1.0 g)
Method: The components (A), A-1 to A-4 and A-9 to A-12, (0.1 g) was added to butyl acrylate (1.0 g) or toluene (1.0 g), and the resulting mixture was stirred. The appearance of the mixture was visually observed, and the solubility was evaluated as follows (Table 5).
• ⊚: dissolved transparently • ∘: dissolved almost transparently, but turbidity was observed • △: not dissolved

Row | Compound | Maximum absorption wavelength Wavelength [1] [nm] | Molar absorption coefficient at 365 nm [1] [L/mol/cm] | Maximum absorption wavelength Molar absorption coefficient [1] [L/mol/cm] | 5% weight loss temperature [2] [°C] | Solubility Butyl acrylate [3] | Solubility Toluene [3] | solubility in butyl acrylate and toluene, result in words [3]
1 | Cc1ccc(Sc2ccc(C(=O)c3ccccc3)cc2)cc1 [A-5, 4-(p-Tolylthio)benzophenone, reference compound] | 316 | 700 | 13200 | 235 | – | – | –
2 | Cc1ccc(Sc2ccc(C(=O)c3ccc(Sc4ccc(C)cc4C)cc3)cc2)c(C)c1 [A-11, 4,4'-Dithio(2,4-dimethylphenyl)benzophenone] | 329 | 3830 | 31640 | – | ○ | ○ | –
3 | S=C(c1ccc(-c2ccccc2)cc1)c1ccc(-c2ccccc2)cc1 [A-1, 4,4'-Diphenylthiobenzophenone] | 326 | 3900 | 32880 | 314 | Δ | Δ | –
4 | 4,4'-Ditolylthiobenzophenone [A-2] | 327 | – | 31500 | – | Δ | ○ | –
5 | Cc1cc(C(C)(C)C)ccc1Sc1ccc(C(=O)c2ccc(Sc3ccc(C(C)(C)C)cc3C)cc2)cc1 [A-9, 4,4'-Dithio(4-tert-butyl-2-methylphenyl)benzophenone] | 329 | 3870 | 32600 | – | ⊚ | ⊚ | –
6 | CSc1ccc(C(=O)c2ccc(SC)cc2)cc1 [A-6, 4,4'-Bis(methylthio)benzophenone, reference compound] | 323 | 1100 | 25100 | 239 | – | – | –
7 | CCCCCCCCSc1ccc(C(=O)c2ccc(SCCCCCCCC)cc2)cc1 [A-7, 4,4'-Bis(octylthio)benzophenone, reference compound] | 326 | 2000 | 24800 | 282 | – | – | –
8 | CC(C)(C)c1ccc(Sc2ccc(C(=O)c3ccc(Sc4ccc(C(C)(C)C)cc4)cc3)cc2)cc1 [A-4, 4,4'-Bis(p-tert-butylphenylthio)benzophenone] | 328 | – | 31120 | – | ○ | ⊚ | good solubility
9 | Cc1ccc(C)c(Sc2ccc(C(=O)c3ccc(Sc4cc(C)ccc4C)cc3)cc2)c1 [A-12, 4,4'-Dithio(2,5-dimethylphenyl)benzophenone] | 328 | 3250 | 31590 | – | ○ | ⊚ | –
10 | CC(C)c1ccc(Sc2ccc(C(=O)c3ccc(Sc4ccc(C(C)C)cc4)cc3)cc2)cc1 [A-3, 4,4'-Bis(p-isopropylphenylthio)benzophenone] | 327 | – | 31440 | – | ⊚ | ⊚ | good solubility
11 | Cc1cccc(Sc2ccc(C(=O)c3ccc(Sc4cccc(C)c4)cc3)cc2)c1 [A-10, 4,4'-Dithio(3-methylphenyl)benzophenone] | 328 | – | 30730 | – | ○ | ⊚ | –
